Data on six molecules can be found in patent US11566007B2, “Ras inhibitors” (Revolution Medicines, Inc., priority 2019, dated 2023).

Molecules are shown by their SMILES.

Experiment [1] concerns NCI-H358 cells (K-Ras G12C). The experiment can be described thus: Potency assay: pERK in NCI-H358 cells. Conditions: Homo sapiens, NCI-H358; H358 KRAS G12C; read-out: pERK EC50. The experiment is classed as cell-based, human. The method, boiled down:
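pERK decrease read by AlphaLISA SureFire p-ERK1/2 or In-Cell Western after 4 h compound exposure at 37 °C, 5% CO2.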

The next experiment relates to NCI-H358 (K-Ras G12C). The experiment is described as follows: CellTiter-Glo cell viability assay, NCI-H358. In kind it is cell-based, human. The conditions noted are these: Homo sapiens, NCI-H358, 120 h, NCI-H358, 5-day treatment; class symbols; read-out: Additional H358 Cell Viability assay data (K-Ras G12C, IC50). Summed up:
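Cells seeded, compound added directly, 5-day exposure. Plates to RT ~30 min, CellTiter-Glo luminescence read. Normalized to DMSO avg (x100); 4-parameter logistic fit.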

In the next experiment the target is K-Ras G12C (Homo sapiens (Human), UniProt P01116+P62937, G12C). The experiment can be described thus: Ras-Raf (BRAF RBD) disruption / FRET / MOA assay, KRAS G12C. Conditions: KRAS G12C; Ras-Raf disruption/FRET/MOA assay; read-out: IC50* KRAS G12C FRET data. In kind it is biochemical. The method, boiled down: (§1)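 TR-FRET read-out: a drop in ratio relative to DMSO wells marks disruption of the Ras:RAF complex, reported as IC50. Compounds (3-fold series, 10 points, top 30 μM final) incubated 3 h at 25° C before Eu-anti-His 10 nM and APC-anti-GST 50 nM, 1.5 h more.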
Sequence of K-Ras G12C (P01116-2 other isoform, or with tags, fused parts or gaps G12C): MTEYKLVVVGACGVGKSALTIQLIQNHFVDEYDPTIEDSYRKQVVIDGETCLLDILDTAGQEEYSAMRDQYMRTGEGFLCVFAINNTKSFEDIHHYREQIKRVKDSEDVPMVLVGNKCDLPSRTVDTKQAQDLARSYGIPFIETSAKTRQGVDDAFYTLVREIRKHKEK
Sequence of K-Ras G12C (P62937 whole entry): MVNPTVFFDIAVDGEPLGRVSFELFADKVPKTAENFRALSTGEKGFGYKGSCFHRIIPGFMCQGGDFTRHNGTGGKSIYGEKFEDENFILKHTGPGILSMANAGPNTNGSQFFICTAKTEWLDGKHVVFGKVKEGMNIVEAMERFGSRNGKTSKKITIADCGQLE

A further experiment addresses K-Ras G13C (Homo sapiens (Human), UniProt P01116+P62937, G13C). The experiment is described as follows: Ras-Raf (BRAF RBD) disruption / FRET / MOA assay, KRAS G13C. The experiment is classed as biochemical. Conditions: KRAS G13C; Ras-Raf disruption/FRET/MOA assay; read-out: IC50* KRAS G13C FRET data. The method, boiled down:
as §1

The next experiment concerns the target KRAS G12S (Homo sapiens (Human), UniProt P01116+P62937, G12S). The experiment is described as follows: Ras-Raf (BRAF RBD) disruption / FRET / MOA assay, KRAS G12S. In kind it is biochemical. Conditions: Ras-Raf disruption/FRET/MOA assay; class symbols; read-out: KRAS G12S FRET data IC50. The method, boiled down: as §1
The target of another experiment is KRAS G12D (Homo sapiens (Human), UniProt P01116+P62937, G12D). The experiment is described as follows: Ras-Raf (BRAF RBD) disruption / FRET / MOA assay, KRAS G12D. In kind it is biochemical. The conditions noted are these: Ras-Raf disruption/FRET/MOA assay; class symbols; read-out: KRAS G12D FRET data IC50. Summed up:
as §1

For the next experiment, the target named is KRAS G12V (Homo sapiens (Human), UniProt P01116+P62937, G12V). The experiment is described as follows: Ras-Raf (BRAF RBD) disruption / FRET / MOA assay, KRAS G12V. In kind it is biochemical. The conditions noted are these: read-out: IC50* KRAS G12V FRET data. Summed up:
as §1

The next experiment concerns the target KRAS WT (Homo sapiens (Human), UniProt P01116+P62937). The experiment can be described thus: Ras-Raf (BRAF RBD) disruption / FRET / MOA assay, KRAS WT. The conditions noted are these: read-out: IC50* KRAS WT FRET data. In kind it is biochemical. Summed up:
as §1

Another experiment concerns the target KRAS G13D (Homo sapiens (Human), UniProt P01116+P62937, G13D). The experiment is described as follows: Ras-Raf (BRAF RBD) disruption / FRET / MOA assay, KRAS G13D. In kind it is biochemical. Conditions: read-out: IC50* KRAS G13D FRET data. Summed up: as §1
A further experiment has as its target NRAS G12C (Homo sapiens (Human), UniProt P01111+P62937, G12C). The experiment can be described thus: Ras-Raf (BRAF RBD) disruption / FRET / MOA assay, NRAS G12C. Conditions: read-out: IC50* NRAS G12C FRET data. In kind it is biochemical. The method, boiled down: as §1

Sequence of KRAS G13D (P01116-2 other isoform, or with tags, fused parts or gaps G13D): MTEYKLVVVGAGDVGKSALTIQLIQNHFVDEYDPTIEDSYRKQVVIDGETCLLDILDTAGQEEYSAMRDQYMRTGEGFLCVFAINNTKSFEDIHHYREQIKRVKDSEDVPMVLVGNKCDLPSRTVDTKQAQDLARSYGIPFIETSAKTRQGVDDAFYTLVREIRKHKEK
Sequence of KRAS G13D (P62937 whole entry): as the sequence (P62937 whole entry) above
Sequence of KRAS G12D (P01116-2 other isoform, or with tags, fused parts or gaps G12D): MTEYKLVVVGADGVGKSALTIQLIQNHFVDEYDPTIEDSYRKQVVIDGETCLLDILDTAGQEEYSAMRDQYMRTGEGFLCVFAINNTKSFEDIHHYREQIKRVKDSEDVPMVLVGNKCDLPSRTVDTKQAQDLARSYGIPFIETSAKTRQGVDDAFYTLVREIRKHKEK
Sequence of KRAS G12D (P62937 whole entry): as the sequence (P62937 whole entry) above
Sequence of K-Ras G13C (P01116-2 other isoform, or with tags, fused parts or gaps G13C): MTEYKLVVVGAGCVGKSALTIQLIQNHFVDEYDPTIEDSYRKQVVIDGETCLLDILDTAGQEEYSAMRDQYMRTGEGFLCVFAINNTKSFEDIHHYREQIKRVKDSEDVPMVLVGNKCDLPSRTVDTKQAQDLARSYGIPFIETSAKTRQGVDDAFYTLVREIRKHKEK
Sequence of K-Ras G13C (P62937 whole entry): as the sequence (P62937 whole entry) above
Sequence of NRAS G12C (P01111 whole entry G12C): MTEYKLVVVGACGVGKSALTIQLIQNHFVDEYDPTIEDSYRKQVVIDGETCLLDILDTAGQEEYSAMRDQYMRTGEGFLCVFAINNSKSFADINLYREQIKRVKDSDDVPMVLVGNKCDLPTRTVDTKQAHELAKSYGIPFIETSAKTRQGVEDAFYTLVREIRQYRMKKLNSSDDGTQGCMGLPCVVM
Sequence of NRAS G12C (P62937 whole entry): as the sequence (P62937 whole entry) above
Sequence of KRAS G12S (P01116-2 other isoform, or with tags, fused parts or gaps G12S): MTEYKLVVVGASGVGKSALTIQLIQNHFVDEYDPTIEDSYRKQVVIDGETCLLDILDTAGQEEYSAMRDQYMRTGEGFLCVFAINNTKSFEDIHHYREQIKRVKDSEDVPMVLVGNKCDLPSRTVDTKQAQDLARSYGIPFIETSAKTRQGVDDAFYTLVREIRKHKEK
Sequence of KRAS G12S (P62937 whole entry): as the sequence (P62937 whole entry) above
Sequence of KRAS G12V (P01116-2 other isoform, or with tags, fused parts or gaps G12V): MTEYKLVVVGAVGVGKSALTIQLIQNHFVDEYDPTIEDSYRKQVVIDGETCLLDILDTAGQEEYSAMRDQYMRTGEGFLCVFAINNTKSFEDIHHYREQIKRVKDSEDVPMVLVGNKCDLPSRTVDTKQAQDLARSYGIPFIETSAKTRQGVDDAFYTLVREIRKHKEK
Sequence of KRAS G12V (P62937 whole entry): as the sequence (P62937 whole entry) above
Sequence of KRAS WT (P01116-2 other isoform, or with tags, fused parts or gaps): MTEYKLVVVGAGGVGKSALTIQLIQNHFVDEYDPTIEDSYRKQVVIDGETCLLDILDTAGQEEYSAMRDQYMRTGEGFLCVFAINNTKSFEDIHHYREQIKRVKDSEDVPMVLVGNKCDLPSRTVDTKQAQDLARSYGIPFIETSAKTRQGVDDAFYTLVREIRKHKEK
Sequence of KRAS WT (P62937 whole entry): as the sequence (P62937 whole entry) above

On to `C=CC(=O)N1C[C@H](C(=O)N(C)[C@H](C(=O)N[C@H]2Cc3cccc(c3)-c3ccc4c(c3)c(c(-c3cccnc3[C@H](C)OC)n4CC)CC(C)(C)COC(=O)[C@@H]3CCCN(N3)C2=O)C(C)C)[C@H](C(F)(F)F)C1` (atropisomer, axis not shown) [Example A400], for which, in experiment [1], the EC50 is under 5 µM. Besides, the IC50 in the experiment on NCI-H358 (K-Ras G12C) was 0.01 to 0.1 µM; on K-Ras G12C, 0.01 to 0.1 µM; at K-Ras G13C, 1 to 10 µM; at KRAS G12S it was over 10 µM; at KRAS G12D, over 10 µM; on KRAS G12V it was over 10 µM. Besides, the IC50 was over 10 µM on KRAS WT, over 10 µM on KRAS G13D and 0.01 to 0.1 µM at NRAS G12C.

In the case of `CC#CC(=O)N1C[C@H](C)[C@H](C(=O)N(C)[C@H](C(=O)N[C@H]2Cc3cccc(c3)-c3ccc4c(c3)c(c(-c3cccnc3[C@H](C)OC)n4CC)CC(C)(C)COC(=O)[C@@H]3CCCN(N3)C2=O)C2CCCC2)C1` (atropisomer, axis not shown) [Example A402], in experiment [1], the EC50 was under 5 µM. In addition, the IC50 in the experiment with NCI-H358 (K-Ras G12C) is 0.01 to 0.1 µM; on K-Ras G12C it was 0.1 to 1 µM; on K-Ras G13C, 1 to 10 µM; at KRAS G12S it was 1 to 10 µM; at KRAS G12D, over 10 µM; on KRAS G12V, 1 to 10 µM. Further, the results for the half-inhibitory concentration (IC50) on KRAS WT, on KRAS G13D and at NRAS G12C were 1 to 10 µM, over 10 µM and 0.1 to 1 µM, respectively.

Regarding `C=CC(=O)N1C[C@@H](C)N(C(=O)N(C)[C@H](C(=O)N[C@H]2Cc3nc(cs3)-c3ccc4c(c3)c(c(-c3cccnc3[C@H](C)OC)n4CC)CC(C)(C)COC(=O)[C@@H]3CCCN(N3)C2=O)C(C)C)C[C@H]1C` (atropisomer, axis not shown) [Example A406], in [1], the concentration giving a half-maximal response (EC50) was under 5 µM. For the same molecule, the half-maximal inhibitory concentration (IC50) with NCI-H358 (K-Ras G12C) was 0.01 to 0.1 µM; on K-Ras G12C, 0.1 to 1 µM; on K-Ras G13C, 0.1 to 1 µM; at KRAS G12S it was 0.1 to 1 µM; on KRAS G12D, 1 to 10 µM; on KRAS G12V it was 0.1 to 1 µM. Moreover, the half-maximal inhibitory concentration (IC50) on KRAS WT, on KRAS G13D and at NRAS G12C was 0.1 to 1 µM each time.

Take `C=CC(=O)N1C[C@@H]2C[C@H]1CN2C(=O)N(C)[C@H](C(=O)N[C@H]1Cc2nc(cs2)-c2ccc3c(c2)c(c(-c2cccnc2[C@H](C)OC)n3CC)CC(C)(C)COC(=O)[C@@H]2CCCN(N2)C1=O)C(C)C` (atropisomer, axis not shown) [Example A409]: in experiment [1], the EC50 was under 5 µM. Further, the IC50 with NCI-H358 (K-Ras G12C) lay in the range of 0.01 to 0.1 µM; at K-Ras G12C it was 0.1 to 1 µM; at K-Ras G13C, 0.1 to 1 µM; at KRAS G12S it was 0.1 to 1 µM; at KRAS G12D, 0.1 to 1 µM; on KRAS G12V it was 0.1 to 1 µM. For the same molecule, the values for the IC50 at KRAS WT, at KRAS G13D and at NRAS G12C were 0.1 to 1 µM, 1 to 10 µM and 0.1 to 1 µM, respectively.

For the molecule `CCn1c(-c2cccnc2[C@H](C)OC)c2c3cc(ccc31)-c1csc(n1)C[C@H](NC(=O)[C@H](C(C)C)N1CC[C@]3(CCN(C(=O)C#CC(C)(C)N(C)C)C3)C1=O)C(=O)N1CCC[C@H](N1)C(=O)OCC(C)(C)C2` (atropisomer, axis not shown) [Example A411], the EC50 in experiment [1] is under 5 µM. Further, the IC50 is under 0.01 µM in the experiment with NCI-H358 (K-Ras G12C); under 0.01 µM on K-Ras G12C; 0.1 to 1 µM on K-Ras G13C; 1 to 10 µM at KRAS G12S; 1 to 10 µM on KRAS G12D; 1 to 10 µM on KRAS G12V. Also, the IC50 is 1 to 10 µM at KRAS WT, 1 to 10 µM on KRAS G13D and under 0.01 µM on NRAS G12C.

For the molecule `CC#CC(=O)N1CC[C@]2(CCN([C@H](C(=O)N[C@H]3Cc4cccc(c4)-c4ccc5c(c4)c(c(-c4cccnc4[C@H](C)OC)n5CC)CC(C)(C)COC(=O)[C@@H]4CCCN(N4)C3=O)C(C)C)C2=O)C1` (atropisomer, axis not shown) [Example A412], the EC50 in [1] is under 5 µM. Also, the IC50 in the experiment on NCI-H358 (K-Ras G12C) lay within 0.01 to 0.1 µM; at K-Ras G12C, 0.1 to 1 µM; on K-Ras G13C, 0.1 to 1 µM; on KRAS G12S, 1 to 10 µM; on KRAS G12D it was 1 to 10 µM; on KRAS G12V it was 1 to 10 µM. Also, the IC50 on KRAS WT lay within 1 to 10 µM; on KRAS G13D, 1 to 10 µM; on NRAS G12C, 0.1 to 1 µM.
